According to publication PMC10284923 (The ISME Journal, 2023):
Like-named read-outs stand apart in the source and are kept apart here.

Assays:
Ec_PhnD [1] = conditions: ITC, dash = binding not detected, read-out: Dissociation constant (KD); cited from earlier work
Ec_PhnD [2] = conditions: intrinsic fluorescence, read-out: Dissociation constant (KD); cited from earlier work
Prochlorococcus MED4 = conditions: cited from earlier work
Prochlorococcus MIT9313 = conditions: cited from earlier work
Synechococcus MITS9220 = format: cell-based
Protocol: (§1) For treatment conditions containing alternative P compounds, 50 µM NaH2PO4 was replaced with 50 µM phosphite (Na2HPO3·5H2O) or methylphosphonate. In P-deplete media, an equal volume of water was added instead of a P compound. Experimental cultures were started from mid-logarithmic cultures grown in phosphate-containing PCR-S11 media. A small inoculum (~100 µL) was used to minimise the transfer of phosphate from stock cultures. Four biological replicates were tested for each experimental condition. Growth was regularly monitored via cell counts using a CytoFLEX S flow cytometer. […] Phosphate concentration in all treatment conditions was monitored regularly for the duration of the experiments using a Phosphate Colorimetric kit following the manufacturer’s instructions (Sigma-Aldrich) with a detection limit of 0.5 µM.

Synechococcus WH8102 = format: cell-based
Protocol: as §1

CC9311_PhnD1 = format: binding, Synechococcus sp. CC9311; conditions: read-out: Dissociation constant (KD)
Pm_PtxB = conditions: read-out: Dissociation constant (KD); cited from earlier work
Prochlorococcus MIT9301 = conditions: cited from earlier work
WH8102_PhnD1 = WH8102_PhnD1 (Parasynechococcus marenigrum, UniProt Q7U716); format: binding, Synechococcus sp. WH8102; conditions: read-out: Dissociation constant (KD)
Chain of WH8102_PhnD1 (Q7U716 27-306 limits assumed): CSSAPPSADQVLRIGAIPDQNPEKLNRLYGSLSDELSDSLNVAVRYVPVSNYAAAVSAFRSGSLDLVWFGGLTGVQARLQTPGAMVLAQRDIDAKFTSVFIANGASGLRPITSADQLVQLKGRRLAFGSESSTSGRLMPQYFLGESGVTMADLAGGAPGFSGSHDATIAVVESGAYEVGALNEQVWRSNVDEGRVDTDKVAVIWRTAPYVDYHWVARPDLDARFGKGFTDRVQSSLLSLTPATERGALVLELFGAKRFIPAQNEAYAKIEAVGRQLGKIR

| Molecule | Kd (Ec_PhnD [1]) [nM] | Kd (Ec_PhnD [2]) [nM] | Growth and utilisation of P source (Prochlorococcus MED4) | Growth and utilisation of P source (Prochlorococcus MIT9313) | Growth as sole P source (Synechococcus MITS9220; 50 µM P source, PCR-S11 medium, cell density by flow cytometry) | Growth as sole P source (Synechococcus WH8102; 50 µM P source, PCR-S11 medium, cell density by flow cytometry, 49 days) | Kd (CC9311_PhnD1) [nM] | Kd (Pm_PtxB) [nM] | Use as sole P source to support growth (Prochlorococcus MIT9301) | Kd (WH8102_PhnD1) [nM] | Growth as sole P source (Synechococcus MITS9220) | Growth as sole P source (Synechococcus WH8102) |
| --- | --- | --- | --- | --- | --- | --- | --- | --- | --- | --- | --- | --- |
| NCCP(=O)(O)O [2-AEP, 2-aminoethylphosphonate] | 100 | < 50 |  |  |  |  |  |  |  |  |  |  |
| O=P(O)(O)O [Pi, inorganic phosphate] |  |  | only able to utilise Pi for their growth | only able to utilise Pi for their growth | growth seen | growth seen |  |  |  |  |  |  |
| phosphite [Pt] |  |  | unable to grow and utilise | unable to grow and utilise |  |  | 1700 ± 900 | 2000 | can use Pt or MPn as the sole P source to support its growth | 4300 ± 500 | do not exhibit a clearly defined exponential growth | do not exhibit a clearly defined exponential growth |
